According to patent publication US11542492B2 (Celgene CAR LLC, priority 2009, dated 2023):

Legend:
[1] = biological target: T1, recombinant human XIAP; BIR3 domain (Homo sapiens, UniProt P98170); test: Fluorescence polarization competition binding assay, XIAP BIR3 domain
T1 construct: recombinant human XIAP; BIR3 domain (895-XB); purchased R&D Systems 895-XB
Method: (§1) Homogeneous, Fluorescence Polarization, Competition Binding Assay Protocol for Affinity Assessment of Compound Binding to XIAP, cIAP-1 and ML-IAPβ BIR3 Domains
(§2) 1× stocks of recombinant human XIAP; BIR3 domain (895-XB), recombinant human cIAP-1 (818-IA) or recombinant human ML-IAPβ (818-IA) from R&D Systems and Fluorescence Polarization (FP) assay tracer (Atto-647 tagged IAP inhibitor probe compound) were prepared in assay buffer consisting of 25 mM Tris-HCL, pH 7.5 (Sigma), 10 mM […] (Sigma), 1 mM DTT (Fluka) and 0.005% TritonX-100 (Pierce). While IAP protein and tracer equilibrated at ambient temp in the dark (30-60 min), 100× stocks of test compound were prepared in 50% DMSO:H2O, serially diluted and spotted (0.5 µL/well) in duplicate wells of a 384-well, flat bottom, polypropylene, black assay plate (Greiner #781209). […] Competition binding between test compounds and assay tracer was initiated by the addition of 50 µL/well of pre-equilibrated IAP protein and assay tracer. Displacement of the assay tracer was measured in a Synergy plate reader from BioTek (Winooski, Vt.) at λex620/λem680 through a 660 nm half-sized dicroich mirror and S/P polarizing filters every 30 min for 3 hr. (See Huang, X., Journal of Biomolecular Screening 8, 2003). The resulting compound dose response data were fit to a one-site binding Ki model in GraphPad Prism from GraphPad Software (San Diego, Calif.).

[2] = biological target: T2, recombinant human ML-IAPβ (Homo sapiens, UniProt Q96CA5); test: Fluorescence polarization competition binding assay, ML-IAPβ; conditions: ML-IAP, 2 h
T2 construct: purchased R&D Systems 818-IA
T2 sequence (Q96CA5 1-280 isoform Q96CA5-2): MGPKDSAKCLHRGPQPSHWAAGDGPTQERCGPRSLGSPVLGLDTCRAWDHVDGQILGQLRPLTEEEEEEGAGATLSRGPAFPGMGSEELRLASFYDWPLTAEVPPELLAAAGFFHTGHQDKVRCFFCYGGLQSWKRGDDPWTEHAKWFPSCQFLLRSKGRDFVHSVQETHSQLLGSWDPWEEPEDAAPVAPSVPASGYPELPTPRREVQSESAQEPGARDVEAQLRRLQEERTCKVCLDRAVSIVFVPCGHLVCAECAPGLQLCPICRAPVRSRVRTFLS
Method: as §1, §2

[3] = biological target: T3, XIAP (Homo sapiens, UniProt P98170); test: MALDI mass spectrometric analysis of intact XIAP incubated with compound; assay type: binding; conditions: 18 hr, 10-fold excess of compound to protein
T3 construct: recombinant human XIAP; BIR3 domain (895-XB)
Method: Intact XIAP was incubated for 18 hr at a 10-fold excess of VII-1 to protein. 3ul aliquots of the samples were diluted with 10 ul of 0.1% TFA prior to micro C4 ZipTipping directly onto the MALDI target using Sinapinic acid as the desorption matrix (10 mg/mL in 0.1% TFA:Acetonitrile 50:50).
Intact XIAP was incubated for 18 hr at a 10-fold excess of VII-21 to protein. 3 ul aliquots of the samples were diluted with 10 ul of 0.1% TFA prior to micro C4 ZipTipping directly onto the MALDI target using Sinapinic acid as the desorption matrix (10 mg/mL in 0.1% TFA:Acetonitrile 50:50).

[4] = biological target: T4, recombinant human cIAP-1 (Homo sapiens, UniProt Q13490); test: Fluorescence polarization competition binding assay, cIAP-1; conditions: c-IAP-1, 3 h
T4 construct: purchased R&D Systems 818-IA
Method: as §1, §2

[5] = biological target: T5, NS3/4A C159S (Hepatitis C virus genotype 1b, UniProt Q9WMX2, C1185S); test: Lysine modification using biotinylated covalent probe in cell lysate; assay type: binding, HCV; conditions: FIG. 10, 1 μM probe, 1h
T5 construct: expressed in transfected cells
Text: The pCI-Neo-FLAG-NS3/4a-WT plasmid was constructed by amplifying the NS3 and 4a sequence from the pFK-I389-luc-ubi-neo-NS3-3′ET vector using Accuprime Pfx (Invitrogen) according to manufacturer's instructions and with primers that added an NheI site and FLAG epitope tag to the 5′ end and an XbaI site to the 3′ end.
The resulting PCR product was then digested with NheI and XbaI and ligated into the same sites of the pCI-Neo vector (Invitrogen). The WT construct was then used as a template for site-directed mutagenesis using the Quickchange II Site-Directed Mutagenesis kit […] and primers containing the K136R or C159S mutations (below).
Lysates were treated with 1 μM of biotinylated covalent probe, XVI-27, for 1h and immunoprecipitated with anti-NS3 antibody (mouse). Immunoblots were probed with streptavidin and anti-NS3 antibody (goat). Successful modification by the covalent probe was assessed and quantified relative to WT NS3.

[6] = biological target: T6, p120γ (PI3Kγ) (Homo sapiens, UniProt P48736); test: HTRF assay, p120γ; assay type: biochemical; conditions: PI3Kγ; read-out: PI3Kγ HTRF IC50 Inhibition Designation
T6 construct: purchased BPS Bioscience 40625
Procedure, shortened: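 End-point competition-binding HTRF with 1-4 nM enzyme and 10 μM di-C8-PIP2, pre-incubated with compound 30 min at 25° C, then 50 μM ATP for 15-30 min at 25° C. HTRF ratio (665/620 nm) gave % inhibition; IC50 from variable-slope log-dose fit.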

[7] = biological target: T7, p110β/p85α (PI3Kβ) (Homo sapiens, UniProt P42338); test: HTRF assay, p110β/p85α; assay type: biochemical; conditions: read-out: PI3Kβ HTRF IC50 Inhibition Designation
T7 construct: purchased Millipore 14-603
Method: The mechanics of the assay platform are best described by the vendor (Millipore, Billerica, Mass.) on their website at the following URL: http://www.millipore.com/coa/tech1/74jt4z.
Briefly, Stop solution (Stop A, #33-007 and Stop B, #33-009; 3:1 ratio) and Detection Mix (DMC, #33-015 with DMA, #33-011 and DMB, #33-013; 18:1:1 ratio) were prepared as recommended by the manufacturer ˜2 hrs prior to use. […] Lipid kinase reactions were started with the addition of 5 μL of ATP solution, mixed for 15 sec on a rotary plate shaker and incubated for 15-30 minutes at 25° C. Next, reactions were stopped with a 5 μL addition of Stop solution followed by a 5 μL volume of Detection Mix. […] At the conclusion of each assay, the HTRF ratio from fluorescence emission values for each well was calculated and % Inhibition determined from averaged controls wells. % Inhibition values for each compound re then plotted against inhibitor concentration to estimate IC50 from log [Inhibitor] vs Response, Variable Slope model in GraphPad Prism from GraphPad Software (San Diego, Calif.).

[8] = biological target: PI3Kγ (Homo sapiens, UniProt P48736); test: MALDI MS of intact PI3Kγ incubated with compound; assay type: binding; conditions: 1 hr, 10-fold excess, 37° C.
Method: Intact PI3Kγ was incubated for 1 hr at a 10-fold excess of compound XXII-33 to protein at 37° C. 5 μL aliquots of the samples were diluted with 10 μL of 0.1% TFA prior to micro C4 Ziptipping directly onto the MALDI target plate using sinapinic acid as the desorption matrix (10 mg/mL in 0.1% TFA:Acetonitrile 50:50).

C=CC(=O)Nc1cccc(CNC(=O)[C@@H]2CC[C@@H]3CCCC[C@H](NC(=O)[C@H](C)NC)C(=O)N32)c1 [VII-1, (3S,6S,10aS)-N-(3-acrylamidobenzyl)-6-((S)-2-(methylamino)propanamido)-5-oxodecahydropyrrolo[1,2-a]azocine-3-carboxamide]
Ki XIAP [1]: 161 nM | Ki [2]: 0.1 to 1 µM | mass shift of XIAP [3]: 417 Da | modification of XIAP [3]: complete modification | Ki [4]: 0.1 to 1 µM

C=CC(=O)Nc1cccc(CNC(=O)[C@@H]2CC[C@@H]3CCCC[C@H](NC(=O)[C@H](C)N(C)C(=O)OC(C)(C)C)C(=O)N32)c1 [VII-2]
Ki XIAP [1]: > 10,000 nM | Ki (XIAP) Inhibition Designation ([1]; XIAP): E (IC50≥10,000 nM) | Ki [2]: > 10 µM | Ki [4]: > 10 µM

CN[C@@H](C)C(=O)N[C@H]1CCCC[C@H]2CC[C@@H](C(=O)NCc3cccc(NC(=O)[C@H]4CCC(=O)O4)c3)N2C1=O [VII-21]
Ki [2]: 1 to 10 µM | mass shift of XIAP [3]: 522 Da | modification of XIAP [3]: complete modification | Ki [4]: 0.1 to 1 µM

C=C[C@H]1C[C@@]1(NC(=O)[C@@H]1CC(Oc2nccc3cc(OC)ccc23)CN1C(=O)[C@H](CCC(=O)N1C[C@@H]2C[C@H]1C(=O)O2)NC(=O)CCCC(=O)NCCCOCCOCCOCCCNC(=O)CCCC[C@@H]1SC[C@@H]2NC(=O)N[C@@H]21)C(=O)NS(=O)(=O)C1CC1 (stereo partly drawn) [XVI-27, N1-((2S)-1-((2S)-2-((1S,2R)-1-(cyclopropylsulfonylcarbamoyl)-2-vinylcyclopropylcarbamoyl)-4-(6-methoxyisoquinolin-1-yloxy)pyrrolidin-1-yl)-1,5-dioxo-5-((1S,4S)-3-oxo-2-oxa-5-azabicyclo[2.2.1]heptan-5-yl)pentan-2-yl)-N5-(15-oxo-19-((3aS,4S,6aR)-2-oxohexahydro-1H-thieno[3,4-d]imidazol-4-yl)-4,7,10-trioxa-14-azanonadecyl)glutaramide]
modification by covalent probe [5]: modifying NS3/4A C159S

Nc1ncc(-c2nc(N3CCOCC3)c3sc(CN4CCN(C(=O)C5CC(=O)CC(=O)C5)CC4)cc3n2)cn1 [XXII-33, 5-(4-((2-(2-aminopyrimidin-5-yl)-4-morpholinothieno[3,2-d]pyrimidin-6-yl)methyl)piperazine-1-carbonyl)cyclohexane-1,3-dione]
IC50 [6]: 0.1 to 1 µM | IC50 [7]: 0.1 to 1 µM | mass shift of PI3Kγ [8]: 492 Da | mass shift of PI3Kγ as percent [8]: 90% | modification of PI3Kγ [8]: complete modification
